Target: T1, recombinant DCLK1 (Homo sapiens, UniProt O15075)
T1 construct: N-terminally 6-His tagged human DCLK1 residues G351-H689 was prepared; 6-His (N); made in house; host or cells: E. coli BL21(DE3), co-transformed with lambda phosphatase
T1 sequence (O15075 351-689 isoform O15075-2): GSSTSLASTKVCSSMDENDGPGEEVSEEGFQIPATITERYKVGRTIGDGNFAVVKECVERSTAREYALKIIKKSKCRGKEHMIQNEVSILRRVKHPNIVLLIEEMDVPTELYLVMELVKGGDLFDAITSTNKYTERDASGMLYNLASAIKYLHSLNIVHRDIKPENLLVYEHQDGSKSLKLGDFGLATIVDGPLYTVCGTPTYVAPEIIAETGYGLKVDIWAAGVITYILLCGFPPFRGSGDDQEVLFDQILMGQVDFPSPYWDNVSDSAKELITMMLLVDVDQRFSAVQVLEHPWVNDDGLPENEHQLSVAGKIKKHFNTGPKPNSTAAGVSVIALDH
Assay: DCLK1 mobility shift assay (gel shift assay)
Assay type: biochemical
Settings: 30 nM recombinant DCLK1, 100 μM ATP, 1 μM FAM-labeled peptide substrate, two hours at room temperature, 8-point dose-response
Experimental: The DNA construct consisting of N-terminally 6-His tagged human DCLK1 residues G351-H689 was prepared. Thus prepared plasmid was co-transformed with lambda phosphatase under chloramphenicol selection into BL21(DE3) E. coli cells.
Protein expression was induced from the DCLK1 plasmid with 0.6 mM IPTG and expression was allowed to continue for about 10 hours at a temperature of 18° C. Cells was harvested by centrifugation and resuspended in Lysis buffer with protease inhibitors (1 mM Benzamidine and 1 mM PMSF). Lysis was performed by passing 3 times through a homogenizer. Lysate was centrifuged at 20K for 1 hour at a temperature of 4° C. and the supernatant was filtered through a 0.2 micron membrane. Protein was loaded on nickel (Ni)-NTA resin, washed with Wash buffers, and eluted with 300 mM imidazole buffer. […]
DCLK1 kinase activity was measured in vitro using an electrophoretic mobility shift assay. […] Substrate and product peptides present in each sample were electrophoretically separated and detected using 12-channel LabChip3000 microfluidic capillary electrophoresis instrument (Caliper Life Sciences, Waltham Mass., USA). The change in the relative fluorescence intensities of substrate and product peaks (reflecting enzyme activity) was measured. Capillary electrophoregrams were analyzed using HTS Well Analyzer software (Caliper Life Sciences, Waltham Mass., USA).

| SMILES | IC50 against DCLK1 compared with the positive control (FIG. 2) |
| --- | --- |
| COc1cc(N2CCN(C)CC2)ccc1Nc1ncc2c(n1)N(C)c1ccccc1C(=O)N2CC(F)(F)F [Compound 2, 2-((2-methoxy-4-(4-methylpiperazin-1-yl)phenyl)amino)-11-methyl-5-(2,2,2-trifluoroethyl)-5,11-dihydro-6H-benzo[e]pyrimido[5,4-b][1,4]diazepin-6-one] | substantially decreased from the IC50 value of the positive control |
| COc1cc(C(=O)NC2CCN(C)CC2)ccc1Nc1ncc2c(n1)N(C)c1ccccc1C(=O)N2CC(F)(F)F [Compound 8, 3-methoxy-4-((11-methyl-6-oxo-5-(2,2,2-trifluoroethyl)-6,11-dihydro-5H-benzo[e]pyrimido[5,4-b][1,4]diazepin-2-yl)amino)-N-(1-methylpiperidin-4-yl)benzamide] | substantially decreased from the IC50 value of the positive control |

Reference: patent publication US11028089B2, “Pyrimido-diazepinone kinase scaffold compounds and methods of treating DCLK1/2-mediated disorders” (DANA-FARBER CANCER INSTITUTE, INC., priority 2016, dated 2021)
